# pIC50: −log10 of the molar value.
# Key:
# Plasmodium yoelii = assay: Antimalarial activity against sporozoite stage of Plasmodium yoelii assessed as invasion of human HepG2 cells expressing CD81 incubated for 2 hrs prior to inoculation measured after 1 hr by immunofluorescence assay in presence of penicillin/streptomycin; assay type: functional, organism-based
# Plasmodium berghei = assay: Antimalarial activity against gametocytic stage of Plasmodium berghei infected in blood assessed as inhibition of ookinete formation at 10 uM after 24 hrs by Giemsa staining-based microscopic analysis relative to control; assay type: functional
SMILES,pIC50 (Plasmodium yoelii),inhibition at 10 µM (Plasmodium berghei) [%]
COc1cc(N[C@H](C)CCCN)c2nccc(C)c2c1Oc1ccc(Cl)c(Cl)c1,> 6.00,
CN(C)c1ccc2nc3ccc(N(C)C)cc3[s+]c2c1 [METHYLENE BLUE ANHYDROUS],> 6.00,< 50
COc1cc(NC(C)CCCN)c2ncccc2c1 (configuration not stated) [PRIMAQUINE],> 6.00,< 50
CCc1nc(N)nc(N)c1-c1ccc(Cl)cc1 [PYRIMETHAMINE],> 6.00,< 50
COc1ccc2nc3cc(Cl)ccc3c(Nc3cc(CN4CCCC4)c(O)c(CN4CCCC4)c3)c2n1 [PYRONARIDINE],> 6.00,< 50
C=C[C@H]1CN2CC[C@H]1C[C@H]2[C@H](O)c1ccnc2ccc(OC)cc12 [QUININE],,< 50
COc1cc(C)c2c(Oc3cccc(C(F)(F)F)c3)c(OC)cc(NC(C)CCCN)c2n1 (configuration not stated) [TAFENOQUINE],> 6.00,

# Second part, led by results:
pIC50 (Plasmodium yoelii),SMILES,inhibition at 10 µM (Plasmodium berghei) [%]
> 6.00,CCc1nc(N)nc(N)c1OCCCOc1ccccc1CCC(=O)O,
> 6.00,CO[C@H]1O[C@@H]2O[C@@]3(C)CC[C@H]4[C@H](C)CC[C@@H]([C@H]1C)[C@@]24OO3 [ARTEMETHER],
> 6.00,C[C@H]1[C@@H](O)O[C@@H]2O[C@@]3(C)CC[C@H]4[C@H](C)CC[C@@H]1[C@@]24OO3 [ARTENIMOL],
> 6.00,C[C@H]1[C@H](OC(=O)CCC(=O)O)O[C@@H]2O[C@@]3(C)CC[C@H]4[C@H](C)CC[C@@H]1[C@@]24OO3 [ARTESUNATE],
> 6.00,O=C1C(O)=C([C@H]2CC[C@H](c3ccc(Cl)cc3)CC2)C(=O)c2ccccc21 [ATOVAQUONE],< 50
